Tests used:
Experiment in all cases: KiNativ chemical proteomics profiling in HeLa and PC3 cell lysates
Assay type in all cases: binding
[1] = biological target: T1, selected panels of kinases in HeLa and PC3 cell lysates (Homo sapiens, UniProt O96017); conditions: 10 uM
T1 construct: endogenous in cells; host or cells: HeLa and PC3 cell lysates

[2] = biological target: T2, selected panels of kinases in HeLa and PC3 cell lysates (Homo sapiens, UniProt Q92918); conditions: 10 uM; proteome HEL; peptide […]kMVK; labeling site Lys1
T2 construct: endogenous in cells; host or cells: HeLa and PC3 cell lysates

[3] = biological target: T3, selected panels of kinases in HeLa and PC3 cell lysates (Homo sapiens, UniProt Q96S38); conditions: 10 uM; RSKL1 domain1; peptide VLGVIDkVLLVMDTR; proteome HEL; labeling site Protein Kinase Domain
T3 construct: endogenous in cells; host or cells: HeLa and PC3 cell lysates

[4] = biological target: T4, selected panels of kinases in HeLa and PC3 cell lysates (Homo sapiens, UniProt P48736); conditions: 10 uM; PIK3CG; peptide KkPLWLEFK; proteome HEL; labeling site ATP
T4 construct: endogenous in cells; host or cells: HeLa and PC3 cell lysates

[5] = biological target: T5, selected panels of kinases in HeLa and PC3 cell lysates (Homo sapiens, UniProt Q9NWZ3); conditions: 10 uM, peptide DIk[…], labeling site Lys2
T5 construct: endogenous in cells; host or cells: HeLa and PC3 cell lysates
T5 sequence (Q9NWZ3 1-460): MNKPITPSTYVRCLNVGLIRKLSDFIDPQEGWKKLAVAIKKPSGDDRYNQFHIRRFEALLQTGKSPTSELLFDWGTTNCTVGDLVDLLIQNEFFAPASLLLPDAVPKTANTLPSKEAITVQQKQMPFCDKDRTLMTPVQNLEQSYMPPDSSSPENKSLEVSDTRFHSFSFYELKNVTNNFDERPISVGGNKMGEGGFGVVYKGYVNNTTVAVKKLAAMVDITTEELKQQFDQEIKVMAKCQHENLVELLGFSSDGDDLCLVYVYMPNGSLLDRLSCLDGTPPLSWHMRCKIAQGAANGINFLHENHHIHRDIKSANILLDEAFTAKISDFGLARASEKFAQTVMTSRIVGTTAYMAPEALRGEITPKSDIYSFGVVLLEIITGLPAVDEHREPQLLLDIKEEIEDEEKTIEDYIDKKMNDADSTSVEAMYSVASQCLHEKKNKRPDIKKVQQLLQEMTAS

[6] = biological target: T6, selected panels of kinases in HeLa and PC3 cell lysates (Homo sapiens, UniProt Q16584); conditions: 10 uM, peptide DLk[…], labeling site Lys2
T6 construct: endogenous in cells; host or cells: HeLa and PC3 cell lysates

[7] = biological target: T7, selected panels of kinases in HeLa and PC3 cell lysates (Homo sapiens, UniProt Q00535); conditions: 10 uM, proteome PC3
T7 construct: endogenous in cells; host or cells: HeLa and PC3 cell lysates
T7 sequence (Q00535 whole entry): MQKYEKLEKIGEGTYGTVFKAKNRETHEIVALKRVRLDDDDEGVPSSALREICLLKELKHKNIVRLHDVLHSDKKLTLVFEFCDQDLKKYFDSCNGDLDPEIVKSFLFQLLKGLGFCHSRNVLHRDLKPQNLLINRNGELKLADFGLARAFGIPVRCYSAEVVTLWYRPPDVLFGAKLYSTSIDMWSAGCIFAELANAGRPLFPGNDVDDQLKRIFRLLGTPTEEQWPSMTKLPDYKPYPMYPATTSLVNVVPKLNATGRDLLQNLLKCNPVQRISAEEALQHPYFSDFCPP

[8] = biological target: T8, selected panels of kinases in HeLa and PC3 cell lysates (Homo sapiens, UniProt P15735); conditions: 10 uM; PHKg2; peptide ATGHEFAVkIMEVTAER; proteome PC3; labeling site Lys1
T8 construct: endogenous in cells; host or cells: HeLa and PC3 cell lysates

[9] = biological target: T9, selected panels of kinases in HeLa and PC3 cell lysates (Homo sapiens, UniProt Q96SB4); conditions: 10 uM; SRPK1; peptide IIHTDIk[…]; proteome PC3; labeling site Lys2
T9 construct: endogenous in cells; host or cells: HeLa and PC3 cell lysates

[10] = biological target: T10, selected panels of kinases in HeLa and PC3 cell lysates (Homo sapiens, UniProt Q9NYL2); conditions: 10 uM, ZAK, peptide […]k, labeling site Lys1
T10 construct: endogenous in cells; host or cells: HeLa and PC3 cell lysates

[11] = biological target: T11, selected panels of kinases in HeLa and PC3 cell lysates (Homo sapiens, UniProt Q96PY6); conditions: 10 uM; proteome HEL; peptide DIkSQNIFLTK; labeling site Lys2
T11 construct: endogenous in cells; host or cells: HeLa and PC3 cell lysates

[12] = biological target: T12, selected panels of kinases in HeLa and PC3 cell lysates (Homo sapiens, UniProt Q13535); conditions: 10 uM, peptide FYIMMCkPK, labeling site ATP
T12 construct: endogenous in cells; host or cells: HeLa and PC3 cell lysates

[13] = biological target: T13, selected panels of kinases in HeLa and PC3 cell lysates (Homo sapiens, UniProt P21127); conditions: 10 uM; PITSLRE; peptide DLk[…]; proteome PC3; labeling site Lys2
T13 construct: endogenous in cells; host or cells: HeLa and PC3 cell lysates

[14] = biological target: T14, selected panels of kinases in HeLa and PC3 cell lysates (Homo sapiens, UniProt Q13555); conditions: 10 uM, peptide TSTQEYAAkIINTK, labeling site Lys1
T14 construct: endogenous in cells; host or cells: HeLa and PC3 cell lysates
T14 sequence (Q13555 whole entry): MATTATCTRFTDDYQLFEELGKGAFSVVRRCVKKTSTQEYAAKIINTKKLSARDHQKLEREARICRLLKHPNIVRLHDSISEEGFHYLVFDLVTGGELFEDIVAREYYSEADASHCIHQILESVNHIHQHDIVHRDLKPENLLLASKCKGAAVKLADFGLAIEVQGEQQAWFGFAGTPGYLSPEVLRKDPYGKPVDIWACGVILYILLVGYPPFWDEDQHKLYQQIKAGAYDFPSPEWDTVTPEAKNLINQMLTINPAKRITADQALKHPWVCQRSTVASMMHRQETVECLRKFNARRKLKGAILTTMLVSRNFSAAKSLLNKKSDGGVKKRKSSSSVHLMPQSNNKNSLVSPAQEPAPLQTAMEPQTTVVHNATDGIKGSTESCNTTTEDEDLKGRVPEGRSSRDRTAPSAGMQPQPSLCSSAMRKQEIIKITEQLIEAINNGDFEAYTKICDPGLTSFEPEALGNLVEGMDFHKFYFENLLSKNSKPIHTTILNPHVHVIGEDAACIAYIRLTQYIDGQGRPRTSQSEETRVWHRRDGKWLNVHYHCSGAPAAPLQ

[15] = biological target: T15, selected panels of kinases in HeLa and PC3 cell lysates (Homo sapiens, UniProt P78527); conditions: 10 uM, labeling site ATP
T15 construct: endogenous in cells; host or cells: HeLa and PC3 cell lysates
T15 sequence (P78527 whole entry): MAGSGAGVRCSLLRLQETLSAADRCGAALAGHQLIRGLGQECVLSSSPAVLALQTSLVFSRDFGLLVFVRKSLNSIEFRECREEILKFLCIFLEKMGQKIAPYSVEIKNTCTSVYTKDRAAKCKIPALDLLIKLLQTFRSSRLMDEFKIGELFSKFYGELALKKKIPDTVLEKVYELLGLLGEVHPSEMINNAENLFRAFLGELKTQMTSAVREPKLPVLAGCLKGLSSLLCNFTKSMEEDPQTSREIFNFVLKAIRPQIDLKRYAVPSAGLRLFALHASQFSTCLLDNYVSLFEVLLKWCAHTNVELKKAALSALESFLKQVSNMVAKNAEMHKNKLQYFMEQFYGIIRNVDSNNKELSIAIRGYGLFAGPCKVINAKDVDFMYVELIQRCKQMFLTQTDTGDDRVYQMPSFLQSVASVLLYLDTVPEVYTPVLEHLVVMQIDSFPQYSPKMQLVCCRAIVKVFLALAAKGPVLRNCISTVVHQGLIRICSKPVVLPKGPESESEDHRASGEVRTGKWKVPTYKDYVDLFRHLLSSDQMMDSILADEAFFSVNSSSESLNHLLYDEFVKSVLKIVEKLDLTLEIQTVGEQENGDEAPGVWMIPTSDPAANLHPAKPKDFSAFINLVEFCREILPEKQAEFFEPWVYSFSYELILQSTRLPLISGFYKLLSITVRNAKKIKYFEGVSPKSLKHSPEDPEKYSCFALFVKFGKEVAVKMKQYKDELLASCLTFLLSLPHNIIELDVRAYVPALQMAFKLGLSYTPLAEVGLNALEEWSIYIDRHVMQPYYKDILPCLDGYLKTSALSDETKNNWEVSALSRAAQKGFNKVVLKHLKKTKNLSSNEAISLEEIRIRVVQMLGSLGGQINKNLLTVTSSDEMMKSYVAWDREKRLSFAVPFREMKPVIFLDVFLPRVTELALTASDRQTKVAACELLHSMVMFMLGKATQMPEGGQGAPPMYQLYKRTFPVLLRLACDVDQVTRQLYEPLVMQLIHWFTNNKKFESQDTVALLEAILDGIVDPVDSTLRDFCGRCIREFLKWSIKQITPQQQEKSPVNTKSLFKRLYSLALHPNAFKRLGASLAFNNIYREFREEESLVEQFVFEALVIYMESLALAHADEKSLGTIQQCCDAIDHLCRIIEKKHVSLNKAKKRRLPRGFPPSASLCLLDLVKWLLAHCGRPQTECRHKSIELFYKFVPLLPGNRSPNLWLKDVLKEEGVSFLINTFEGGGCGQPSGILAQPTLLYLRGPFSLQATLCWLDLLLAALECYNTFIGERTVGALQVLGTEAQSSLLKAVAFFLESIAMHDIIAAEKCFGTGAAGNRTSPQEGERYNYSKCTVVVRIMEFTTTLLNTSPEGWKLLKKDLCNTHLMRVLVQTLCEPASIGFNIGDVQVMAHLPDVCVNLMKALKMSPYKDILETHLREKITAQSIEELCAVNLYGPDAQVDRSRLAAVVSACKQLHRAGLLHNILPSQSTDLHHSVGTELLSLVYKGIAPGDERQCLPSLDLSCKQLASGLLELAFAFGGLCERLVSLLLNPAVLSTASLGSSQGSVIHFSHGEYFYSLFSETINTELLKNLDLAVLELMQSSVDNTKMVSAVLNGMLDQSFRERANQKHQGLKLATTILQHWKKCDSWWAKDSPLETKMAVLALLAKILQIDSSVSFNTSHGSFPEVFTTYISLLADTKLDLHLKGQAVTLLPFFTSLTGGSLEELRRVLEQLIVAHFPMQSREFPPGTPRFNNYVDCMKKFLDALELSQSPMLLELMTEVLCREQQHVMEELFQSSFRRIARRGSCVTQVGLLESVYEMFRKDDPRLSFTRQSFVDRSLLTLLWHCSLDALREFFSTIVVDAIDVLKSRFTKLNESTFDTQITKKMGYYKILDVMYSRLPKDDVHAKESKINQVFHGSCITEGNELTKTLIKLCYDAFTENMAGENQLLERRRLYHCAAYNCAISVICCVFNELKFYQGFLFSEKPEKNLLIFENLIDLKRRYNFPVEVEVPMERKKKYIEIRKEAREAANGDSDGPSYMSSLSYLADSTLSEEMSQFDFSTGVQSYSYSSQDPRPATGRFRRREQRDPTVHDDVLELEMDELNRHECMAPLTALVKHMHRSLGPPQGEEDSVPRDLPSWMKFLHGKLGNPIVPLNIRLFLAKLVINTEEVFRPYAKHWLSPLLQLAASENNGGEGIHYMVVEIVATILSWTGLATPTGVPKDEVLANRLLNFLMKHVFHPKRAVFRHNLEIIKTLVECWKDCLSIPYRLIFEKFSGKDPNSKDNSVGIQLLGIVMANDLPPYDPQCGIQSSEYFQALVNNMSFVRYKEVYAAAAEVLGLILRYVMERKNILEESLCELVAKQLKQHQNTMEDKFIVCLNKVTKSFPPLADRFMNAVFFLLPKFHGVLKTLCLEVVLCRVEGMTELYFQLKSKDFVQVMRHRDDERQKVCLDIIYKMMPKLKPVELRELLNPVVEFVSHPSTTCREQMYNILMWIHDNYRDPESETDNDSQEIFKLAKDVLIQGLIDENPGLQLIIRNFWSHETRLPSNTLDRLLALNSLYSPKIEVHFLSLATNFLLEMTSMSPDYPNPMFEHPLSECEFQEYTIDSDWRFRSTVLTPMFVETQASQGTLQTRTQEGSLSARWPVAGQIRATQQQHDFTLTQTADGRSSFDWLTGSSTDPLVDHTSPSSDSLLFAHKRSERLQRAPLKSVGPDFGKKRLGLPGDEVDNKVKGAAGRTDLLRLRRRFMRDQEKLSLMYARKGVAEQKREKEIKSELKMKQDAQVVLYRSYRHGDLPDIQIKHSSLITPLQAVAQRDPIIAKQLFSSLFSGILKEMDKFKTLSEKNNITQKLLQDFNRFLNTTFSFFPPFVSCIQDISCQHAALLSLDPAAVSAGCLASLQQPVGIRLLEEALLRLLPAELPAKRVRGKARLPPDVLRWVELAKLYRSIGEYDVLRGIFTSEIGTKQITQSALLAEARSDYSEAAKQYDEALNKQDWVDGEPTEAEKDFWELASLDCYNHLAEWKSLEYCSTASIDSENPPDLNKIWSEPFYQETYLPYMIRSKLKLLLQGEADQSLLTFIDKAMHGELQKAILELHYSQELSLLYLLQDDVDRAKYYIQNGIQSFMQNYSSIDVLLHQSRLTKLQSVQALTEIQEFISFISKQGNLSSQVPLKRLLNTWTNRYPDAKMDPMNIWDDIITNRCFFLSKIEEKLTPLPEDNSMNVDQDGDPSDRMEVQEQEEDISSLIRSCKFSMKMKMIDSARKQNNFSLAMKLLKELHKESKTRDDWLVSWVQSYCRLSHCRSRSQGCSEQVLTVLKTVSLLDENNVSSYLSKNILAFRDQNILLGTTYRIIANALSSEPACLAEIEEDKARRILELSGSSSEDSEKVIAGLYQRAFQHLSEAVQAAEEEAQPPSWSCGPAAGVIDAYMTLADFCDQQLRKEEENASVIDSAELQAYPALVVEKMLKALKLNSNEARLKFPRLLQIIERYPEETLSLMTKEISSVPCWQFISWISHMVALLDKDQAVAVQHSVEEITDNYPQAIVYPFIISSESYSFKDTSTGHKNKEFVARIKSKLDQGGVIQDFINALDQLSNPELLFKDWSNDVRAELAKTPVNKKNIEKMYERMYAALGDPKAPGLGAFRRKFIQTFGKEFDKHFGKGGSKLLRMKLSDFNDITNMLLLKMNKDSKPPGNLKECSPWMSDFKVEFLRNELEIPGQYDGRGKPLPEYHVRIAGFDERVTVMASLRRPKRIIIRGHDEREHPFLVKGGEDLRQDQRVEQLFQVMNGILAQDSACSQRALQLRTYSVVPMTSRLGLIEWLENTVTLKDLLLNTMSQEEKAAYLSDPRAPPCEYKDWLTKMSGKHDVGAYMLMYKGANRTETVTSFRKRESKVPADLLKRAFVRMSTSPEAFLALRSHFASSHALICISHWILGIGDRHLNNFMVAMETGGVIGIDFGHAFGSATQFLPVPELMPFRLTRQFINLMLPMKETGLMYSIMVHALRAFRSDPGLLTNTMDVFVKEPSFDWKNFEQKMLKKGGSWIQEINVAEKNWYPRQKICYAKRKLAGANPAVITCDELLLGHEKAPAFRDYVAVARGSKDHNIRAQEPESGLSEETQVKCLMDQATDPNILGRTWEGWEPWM

[16] = proteome HEL, peptide DLk[…], labeling site Lys2
[17] = proteome PC3, peptide DLk[…], labeling site Lys2
[18] = proteome PC3, peptide VAIkIISK, labeling site Lys1
[19] = peptide DLkPQNLLINR, labeling site Lys2
[20] = peptide ETHEIVALkR, labeling site Lys1
[21] = peptide […]kR, labeling site Lys1

SMILES	% Inhibiton, CHK2 [1, 16] [%]	% Inhibiton, CHK2 [1, 17] [%]	% Inhibiton, CHK2 [1, 18] [%]	% Inhibiton, HPK1 [2] [%]	% Inhibition RSKL1 domain1 [3] [%]	% Inhibition PIK3CG [4] [%]	% Inhibiton, IRAK4 ([5]; proteome HEL) [%]	% Inhibiton, IRAK4 ([5]; proteome PC3) [%]	% Inhibiton, MLK3 ([6]; proteome HEL) [%]	% Inhibiton, MLK3 ([6]; proteome PC3) [%]	% Inhibiton, CDK5 [7, 19] [%]	% Inhibiton, CDK5 [7, 20] [%]	% Inhibiton, CDK5 [7, 21] [%]	% Inhibition PHKg2 [8] [%]	% Inhibition SRPK1 [9] [%]	% Inhibition ZAK ([10]; proteome HEL) [%]	% Inhibition ZAK ([10]; proteome PC3) [%]	% Inhibiton, NEK1 [11] [%]	% Inhibiton, ATR ([12]; proteome HEL) [%]	% Inhibiton, ATR ([12]; proteome PC3) [%]	further results
CCOc1cc(C(=O)N2CCC(N3CCN(C)CC3)CC2)ccc1Nc1ncc2c(n1)N(C1CCCC1)c1ccccc1C(=O)N2C [Compound 26]	-18.8	14.1	4.6	-10.9	-6.2	45.3	-2.3	1.4	-12.1	11.9	-4.7	-6.5	11.7	-3.8	-25	13.4	-25.5	3	-9.8	-4.3	% Inhibition PITSLRE [13]: 3.5%; % Inhibiton, CaMK2g ([14]; proteome HEL): 7.3%; % Inhibiton, CaMK2g ([14]; proteome PC3): -4.7%; % Inhibiton, DNAPK ([15]; proteome HEL, peptide […]k[…]): 2.3%; % Inhibiton, DNAPK ([15]; proteome PC3, peptide […]k[…]): 10.1%; % Inhibiton, DNAPK ([15]; proteome PC3, peptide k[…]): 23.8%
COc1cc(C(=O)N2CCC(N3CCN(C)CC3)CC2)ccc1Nc1ncc2c(n1)N(C1CCCC1)c1ccccc1C(=O)N2C [Compound 25, 11-cyclopentyl-2-((2-methoxy-4-(4-(4-methylpiperazin-1-yl)piperidine-1-carbonyl)phenyl)amino)-5-methyl-5H-benzo[e]pyrimido[5,4-b][1,4]diazepin-6(11H)-one]	15.6	0.0283	11.3	-8.3	~75.1	11.8	13.4	-7.4	3.1	4.4	-8.6	9.7	-1.2	8.1	-29.3	-6.6	-9.3	14.7	8.5	21.0	% Inhibition PITSLRE [13]: 5.1%; % Inhibiton, CaMK2g ([14]; proteome HEL): 8.7%; % Inhibiton, CaMK2g ([14]; proteome PC3): 7.8%; % Inhibiton, DNAPK ([15]; proteome HEL, peptide […]k[…]): 2.3%; % Inhibiton, DNAPK ([15]; proteome PC3, peptide […]k[…]): -16.3%; % Inhibiton, DNAPK ([15]; proteome PC3, peptide k[…]): -9.9%

From PMC3914206
